Measured values from patent publication US20220369638A1, “USE OF THE SUCCINATE DEHYDROGENASE INHIBITOR PYDIFLUMETOFEN FOR CONTROLLING CLAVICEPS PURPUREA AND REDUCING SCLEROTIA IN CEREALS” (Bayer Aktiengesellschaft, priority 2019, published 2022).

System: Claviceps purpurea
Experiment: Field trials 2018 in Canada: foliar application at early flowering, sclerotia (ergot bodies) counted in harvested wheat grain
Format: in vivo
Conditions: 75 grams/ha Pydiflumetofen, spring wheat (AC Goodeve) or durum wheat (AC Strongfield), crop per trial not stated
Description: Pydiflumetofen as well as market standards were applied according to table 2 between Jul. 6-9, 2018 between BBCH stage 61-63 (early flowering). Assessment of sclerotia was conducted in fall 2018 on harvested grain samples. […] A mixture of Pydiflumetofen and Propiconazole is also available as a suspension concentrate 275 SC formulation (275 grams of total active ingredients) with 150 grams of Pydiflumetofen and 125 grams of Propiconazole per litre under the name […] be tested for reduction of sclerotia in cereals, in particular in spring wheat, winter wheat, durum, hybrid spring wheat, hybrid winter wheat, winter rye, spring rye, hybrid winter rye, hybrid spring rye, and […] plants.

## CON(C(=O)c1cn(C)nc1C(F)F)C(C)Cc1c(Cl)cc(Cl)cc1Cl (stereo not drawn) [Pydiflumetofen, 3-(difluoromethyl)-N-methoxy-1-methyl-N-[1-methyl-2-(2,4,6-trichlorophenyl)ethyl]-1H-pyrazole-4-carboxamide]
Applied BBCH 61-63, untreated 0.5
  Trial No 1 number of Ergot bodies per kg seed: 0.5 per kg seed
Applied BBCH 61-63, untreated 1.3
  Trial No 3 number of Ergot bodies per kg seed: 0 per kg seed
Applied BBCH 61-63, untreated 2.3
  Trial No 2 number of Ergot bodies per kg seed: 0.3 per kg seed
